Measurements published in PubChem BioAssay (NCI).
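The compound was tested at five concentrations on cells cultured in 96-well plates, with a 48-hour exposure period. Here, GI50 denotes the concentration required for 50% inhibition of growth. Definition used: TGI = concentration required for complete inhibition of growth.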

Key:
Test in all cases: inhibition of tumour cell growth, NCI panel, 48 h
786-0 renal = test system: 786-0 renal
A498 renal = test system: A498 renal
A549 NSCLC = test system: A549 NSCLC
ACHN renal = test system: ACHN renal
BT-549 breast = test system: BT-549 breast
CAKI-1 renal = test system: CAKI-1 renal
CCRF-CEM leukemia = test system: CCRF-CEM leukemia
COLO 205 colon = test system: COLO 205 colon
DLD-1 colon = test system: DLD-1 colon
DMS 114 small cell lung = test system: DMS 114 small cell lung
DMS 273 small cell lung = test system: DMS 273 small cell lung
DU-145 prostate = test system: DU-145 prostate
EKVX NSCLC = test system: EKVX NSCLC
HCC-2998 colon = test system: HCC-2998 colon
HCT-116 colon = test system: HCT-116 colon
HCT-15 colon = test system: HCT-15 colon
HL-60(TB) leukemia = test system: HL-60(TB) leukemia
HOP-18 NSCLC = test system: HOP-18 NSCLC
HOP-62 NSCLC = test system: HOP-62 NSCLC
HOP-92 NSCLC = test system: HOP-92 NSCLC
HS 578T breast = test system: HS 578T breast
HT29 colon = test system: HT29 colon
IGROV1 ovarian = test system: IGROV1 ovarian
K-562 leukemia = test system: K-562 leukemia
KM12 colon = test system: KM12 colon
KM20L2 colon = test system: KM20L2 colon
LOX IMVI melanoma = test system: LOX IMVI melanoma
LXFL 529 NSCLC = test system: LXFL 529 NSCLC
M14 melanoma = test system: M14 melanoma
MALME-3M melanoma = test system: MALME-3M melanoma
MCF7 breast = test system: MCF7 breast
MDA-MB-231 breast = test system: MDA-MB-231 breast
MDA-MB-435 = test system: MDA-MB-435
MOLT-4 leukemia = test system: MOLT-4 leukemia
NCI-H460 lung = test system: NCI-H460 lung
NCI-H522 lung = test system: NCI-H522 lung
NCI/ADR-RES ovarian = test system: NCI/ADR-RES ovarian
OVCAR-3 ovarian = test system: OVCAR-3 ovarian
OVCAR-4 ovarian = test system: OVCAR-4 ovarian
OVCAR-8 ovarian = test system: OVCAR-8 ovarian
PC-3 prostate = test system: PC-3 prostate
RPMI-8226 leukemia = test system: RPMI-8226 leukemia
RXF-631 renal = test system: RXF-631 renal
SF-268 CNS = test system: SF-268 CNS
SF-295 CNS = test system: SF-295 CNS
SF-539 CNS = test system: SF-539 CNS
SK-MEL-2 melanoma = test system: SK-MEL-2 melanoma
SK-MEL-5 melanoma = test system: SK-MEL-5 melanoma
SK-OV-3 ovarian = test system: SK-OV-3 ovarian
SN12C renal = test system: SN12C renal
SNB-19 CNS = test system: SNB-19 CNS
SNB-75 CNS = test system: SNB-75 CNS
SNB-78 CNS = test system: SNB-78 CNS
SR leukemia = test system: SR leukemia
SW-620 colon = test system: SW-620 colon
T-47D breast = test system: T-47D breast
U251 CNS = test system: U251 CNS
UACC-257 melanoma = test system: UACC-257 melanoma
UACC-62 melanoma = test system: UACC-62 melanoma
UO-31 renal = test system: UO-31 renal
XF 498 CNS = test system: XF 498 CNS
M19-MEL melanoma = test system: M19-MEL melanoma
NCI-H226 lung = test system: NCI-H226 lung
NCI-H23 lung = test system: NCI-H23 lung
OVCAR-5 ovarian = test system: OVCAR-5 ovarian
RXF 393 renal = test system: RXF 393 renal
TK-10 renal = test system: TK-10 renal

Nc1[nH]c(=O)nc2c1cnn2Cc1ccccc1
GI50 (786-0 renal): > 100 µM | TGI (786-0 renal): > 100 µM | TGI (A498 renal): > 100 µM | TGI (A549 NSCLC): > 100 µM | TGI (ACHN renal): > 100 µM | GI50 (BT-549 breast): 36.2 µM | TGI (BT-549 breast): > 100 µM | TGI (CAKI-1 renal): > 100 µM | TGI (CCRF-CEM leukemia): > 100 µM | TGI (COLO 205 colon): > 100 µM | TGI (DLD-1 colon): > 100 µM | TGI (DMS 114 small cell lung): > 100 µM | TGI (DMS 273 small cell lung): > 100 µM | GI50 (DU-145 prostate): > 100 µM | TGI (DU-145 prostate): > 100 µM | TGI (EKVX NSCLC): > 100 µM | GI50 (HCC-2998 colon): > 100 µM | TGI (HCC-2998 colon): > 100 µM | TGI (HCT-116 colon): > 100 µM | TGI (HCT-15 colon): > 100 µM | TGI (HL-60(TB) leukemia): > 100 µM | TGI (HOP-18 NSCLC): > 100 µM | GI50 (HOP-62 NSCLC): > 100 µM | TGI (HOP-62 NSCLC): > 100 µM | TGI (HOP-92 NSCLC): > 100 µM | GI50 (HS 578T breast): > 100 µM | TGI (HS 578T breast): > 100 µM | TGI (HT29 colon): > 100 µM | TGI (IGROV1 ovarian): > 100 µM | TGI (K-562 leukemia): > 100 µM | TGI (KM12 colon): > 100 µM | TGI (KM20L2 colon): 3.05 µM | TGI (LOX IMVI melanoma): > 100 µM | TGI (LXFL 529 NSCLC): > 100 µM | TGI (M14 melanoma): > 100 µM | TGI (MALME-3M melanoma): > 100 µM | GI50 (MCF7 breast): > 100 µM | TGI (MCF7 breast): > 100 µM | GI50 (MDA-MB-231 breast): > 100 µM | TGI (MDA-MB-231 breast): > 100 µM | GI50 (MDA-MB-435): > 100 µM | TGI (MDA-MB-435): > 100 µM | TGI (MOLT-4 leukemia): > 100 µM | TGI (NCI-H460 lung): > 100 µM | GI50 (NCI-H522 lung): > 100 µM | TGI (NCI-H522 lung): > 100 µM | GI50 (NCI/ADR-RES ovarian): > 100 µM | TGI (NCI/ADR-RES ovarian): > 100 µM | GI50 (OVCAR-3 ovarian): > 100 µM | TGI (OVCAR-3 ovarian): > 100 µM | TGI (OVCAR-4 ovarian): > 100 µM | TGI (OVCAR-8 ovarian): > 100 µM | GI50 (PC-3 prostate): > 100 µM | TGI (PC-3 prostate): > 100 µM | TGI (RPMI-8226 leukemia): > 100 µM | TGI (RXF-631 renal): > 100 µM | TGI (SF-268 CNS): > 100 µM | TGI (SF-295 CNS): > 100 µM | TGI (SF-539 CNS): > 100 µM | TGI (SK-MEL-2 melanoma): > 100 µM | TGI (SK-MEL-5 melanoma): > 100 µM | GI50 (SK-OV-3 ovarian): > 100 µM | TGI (SK-OV-3 ovarian): > 100 µM | TGI (SN12C renal): > 100 µM | TGI (SNB-19 CNS): > 100 µM | TGI (SNB-75 CNS): > 100 µM | TGI (SNB-78 CNS): 3.08 µM | TGI (SR leukemia): > 100 µM | TGI (SW-620 colon): > 100 µM | GI50 (T-47D breast): > 100 µM | TGI (T-47D breast): > 100 µM | TGI (U251 CNS): 2.73 µM | TGI (UACC-257 melanoma): > 100 µM | GI50 (UACC-62 melanoma): > 100 µM | TGI (UACC-62 melanoma): > 100 µM | TGI (UO-31 renal): > 100 µM | TGI (XF 498 CNS): > 100 µM

O=C1C(c2ccccc2)=C(c2ccccc2)C(c2ccc(-c3ccc(C4=C(c5ccccc5)C(=O)C(c5ccccc5)=C4c4ccccc4)cc3)cc2)=C1c1ccccc1
TGI (786-0 renal): > 100 µM | TGI (A498 renal): > 100 µM | TGI (A549 NSCLC): > 100 µM | TGI (CAKI-1 renal): > 100 µM | TGI (CCRF-CEM leukemia): > 100 µM | TGI (COLO 205 colon): > 100 µM | TGI (DLD-1 colon): > 100 µM | TGI (DMS 114 small cell lung): > 100 µM | TGI (DMS 273 small cell lung): > 100 µM | TGI (EKVX NSCLC): > 100 µM | TGI (HCT-116 colon): > 100 µM | TGI (HCT-15 colon): > 100 µM | TGI (HL-60(TB) leukemia): > 100 µM | TGI (HOP-18 NSCLC): > 100 µM | TGI (HOP-62 NSCLC): > 100 µM | TGI (HOP-92 NSCLC): > 100 µM | TGI (HT29 colon): > 100 µM | TGI (IGROV1 ovarian): > 100 µM | TGI (K-562 leukemia): > 100 µM | TGI (KM12 colon): > 100 µM | TGI (KM20L2 colon): > 100 µM | TGI (LOX IMVI melanoma): > 100 µM | TGI (LXFL 529 NSCLC): > 100 µM | TGI (M14 melanoma): > 100 µM | TGI (M19-MEL melanoma): > 100 µM | TGI (MALME-3M melanoma): > 100 µM | TGI (MOLT-4 leukemia): > 100 µM | TGI (NCI-H226 lung): > 100 µM | TGI (NCI-H23 lung): > 100 µM | TGI (NCI-H460 lung): > 100 µM | TGI (NCI-H522 lung): > 100 µM | TGI (OVCAR-3 ovarian): > 100 µM | TGI (OVCAR-4 ovarian): > 100 µM | TGI (OVCAR-5 ovarian): > 100 µM | TGI (OVCAR-8 ovarian): > 100 µM | TGI (RPMI-8226 leukemia): > 100 µM | TGI (RXF 393 renal): > 100 µM | TGI (RXF-631 renal): > 100 µM | TGI (SF-268 CNS): > 100 µM | TGI (SF-295 CNS): > 100 µM | TGI (SF-539 CNS): > 100 µM | TGI (SK-MEL-2 melanoma): > 100 µM | TGI (SK-MEL-5 melanoma): > 100 µM | TGI (SK-OV-3 ovarian): > 100 µM | TGI (SN12C renal): > 100 µM | TGI (SNB-19 CNS): > 100 µM | TGI (SNB-75 CNS): > 100 µM | TGI (SR leukemia): > 100 µM | TGI (SW-620 colon): > 100 µM | TGI (TK-10 renal): > 100 µM | TGI (U251 CNS): > 100 µM | TGI (UACC-257 melanoma): > 100 µM | TGI (UACC-62 melanoma): > 100 µM | TGI (UO-31 renal): > 100 µM | TGI (XF 498 CNS): > 100 µM
